# Experiments:
# Assay type in all cases: functional
# [1] = tested on: Aspergillus niger; assay: Potency index, ratio for MIC of fluconazole to MIC of compound for antifungal activity against Aspergillus niger
# [2] = tested on: Saccharomyces cerevisiae; assay: Potency index, ratio for MIC of fluconazole to MIC of compound for antifungal activity against Saccharomyces cerevisiae
# [3] = tested on: Aspergillus fumigatus; assay: Potency index, ratio for MIC of fluconazole to MIC of compound for antifungal activity against Aspergillus fumigatus
# [4] = tested on: Cryptococcus neoformans; assay: Antifungal activity against Cryptococcus neoformans LA314 assessed as reduction in fungal cell growth incubated for 48 hrs by broth microdilution method; conditions: LA314, 48 h
# [5] = tested on: Nakaseomyces glabratus; assay: Antifungal activity against Candida glabrata assessed as reduction in fungal cell growth incubated for 48 hrs by broth microdilution method
# [6] = tested on: Candida parapsilosis; assay: Antifungal activity against Candida parapsilosis ATCC 22019 assessed as reduction in fungal cell growth incubated for 48 hrs by broth microdilution method; conditions: Lodderomyces parapsilosis, ATCC 22019, 48 h
# [7] = tested on: Pichia kudriavzevii; assay: Antifungal activity against Candida krusei assessed as reduction in fungal cell growth incubated for 48 hrs by broth microdilution method
# [8] = tested on: Candida tropicalis; assay: Antifungal activity against Candida tropicalis assessed as reduction in fungal cell growth incubated for 48 hrs by broth microdilution method
# [9] = tested on: Aspergillus niger; assay: Antifungal activity against Aspergillus niger assessed as reduction in fungal cell growth incubated for 72 hrs by broth microdilution method
# [10] = tested on: Candida albicans; assay: Antifungal activity against Candida albicans V-01-191A-261 assessed as reduction in fungal cell growth incubated for 48 hrs by broth microdilution method; conditions: V-01-191A-261, 48 h
# [11] = tested on: Candida albicans; assay: Antifungal activity against Candida albicans TA
# [12] = tested on: Candida albicans; assay: Potency index, ratio for MIC of fluconazole to MIC of compound for antifungal activity against Candida albicans TA
# [13] = tested on: Candida albicans; assay: In vivo antifungal activity against Candida albicans TA infected in CDF-1 mouse dosed orally assessed as survival of mouse; conditions: po
# [14] = tested on: Aspergillus flavus; assay: Antifungal activity against Aspergillus flavus
# [15] = tested on: Aspergillus fumigatus; assay: Antifungal activity against Aspergillus fumigatus
# [16] = tested on: Aspergillus flavus; assay: Antifungal activity against Aspergillus flavus NCIM 524 assessed as reduction in fungal cell growth incubated for 3 to 4 days by disk diffusion method
# [17] = tested on: Aspergillus fumigatus; assay: Antifungal activity against Aspergillus fumigatus NCIM 902 assessed as reduction in fungal cell growth incubated for 3 to 4 days by disk diffusion method
# [18] = tested on: Talaromyces marneffei; assay: Antifungal activity against Penicillium marneffei assessed as reduction in fungal cell growth incubated for 3 to 4 days by disk diffusion method
# [19] = tested on: Trichophyton mentagrophytes; assay: Antifungal activity against Trichophyton mentagrophytes assessed as reduction in fungal cell growth incubated for 3 to 4 days by disk diffusion method
# [20] = tested on: Candida albicans; assay: Antifungal activity against Candida albicans
# [21] = tested on: Nakaseomyces glabratus; assay: Antifungal activity against Candida glabrata ATCC 36583 by broth microdilution method
# [22] = tested on: Candida tropicalis; assay: Antifungal activity against Candida tropicalis by broth microdilution method
# [23] = tested on: Candida albicans; assay: Antifungal activity against Candida albicans assessed as reduction in fungal cell growth incubated for 24 hrs by broth microdilution method
# [24] = tested on: Nakaseomyces glabratus; assay: Antifungal activity against Candida glabrata assessed as reduction in fungal cell growth incubated for 24 hrs by broth microdilution method
# [25] = tested on: Pichia kudriavzevii; assay: Antifungal activity against Candida krusei assessed as reduction in fungal cell growth incubated for 24 hrs by broth microdilution method
# [26] = tested on: Candida tropicalis; assay: Antifungal activity against Candida tropicalis assessed as reduction in fungal cell growth incubated for 24 hrs by broth microdilution method
# [27] = tested on: Alternaria solani; assay: Antifungal activity against Alternaria solani assessed as inhibition of growth at 50 ug/ml; conditions: read-out: GI
# [28] = tested on: Botrytis cinerea; assay: Antifungal activity against Botrytis cinerea assessed as inhibition of growth at 50 ug/ml; conditions: read-out: GI
# [29] = tested on: Mycosphaerella arachidis; assay: Antifungal activity against Cercospora arachidicola assessed as inhibition of growth at 50 ug/ml; conditions: read-out: GI
# [30] = tested on: Fusarium graminearum; assay: Antifungal activity against Gibberella zeae assessed as inhibition of growth at 50 ug/ml; conditions: read-out: GI
# [31] = tested on: Phytophthora infestans; assay: Antifungal activity against Phytophthora infestans assessed as inhibition of growth at 50 ug/ml; conditions: read-out: GI
# [32] = tested on: Botryosphaeria berengeriana; assay: Antifungal activity against Physalospora pyricola assessed as inhibition of growth at 50 ug/ml; conditions: read-out: GI
# [33] = Antifungal activity against Pellicularia sasakii assessed as inhibition of growth at 50 ug/ml; conditions: read-out: GI
# [34] = tested on: Sclerotinia sclerotiorum; assay: Antifungal activity against Sclerotinia sclerotiorum assessed as inhibition of growth at 50 ug/ml; conditions: read-out: GI
# [35] = tested on: Ceratobasidium cereale; assay: Antifungal activity against Rhizoctonia cerealis assessed as inhibition of growth at 50 ug/ml; conditions: read-out: GI
# [36] = tested on: Candida albicans; assay: Antifungal activity against Candida albicans MTCC 227 assessed as reduction in fungal cell growth incubated for 24 and 48 hrs by broth microdilution method
# [37] = tested on: Candida albicans; assay: Antifungal activity against Candida albicans assessed as reduction in fungal cell growth incubated for 24 and 72 hrs by cup plate method
# [38] = tested on: Aspergillus flavus; assay: Antifungal activity against Aspergillus flavus assessed as reduction in fungal cell growth incubated for 24 and 72 hrs by cup plate method
# [39] = tested on: Candida albicans; assay: Antifungal activity against Candida albicans MTCC183 assessed as reduction in fungal cell growth incubated for 24 to 48 hrs
# [40] = tested on: Aspergillus niger; assay: Antifungal activity against Aspergillus niger MTCC281 assessed as reduction in fungal cell growth incubated for 24 to 48 hrs
# [41] = tested on: Candida albicans; assay: Antifungal activity against Candida albicans MTCC 227 assessed as reduction in fungal cell growth incubated for 24 hrs by broth microdilution method; conditions: MTCC 227, 24 h
# [42] = tested on: Nakaseomyces glabratus; assay: Antifungal activity against Candida glabrata NCIM 3236 assessed as reduction in fungal cell growth incubated for 24 hrs by broth microdilution method; conditions: NCIM 3236, 24 h
compound,measurement,setting,value
Nc1nc(-c2ccc(-n3cnnn3)cc2)cc(-c2ccc(OC(F)F)c(O)c2)n1,Ratio,[1],>=2
same,Ratio,[2],>=2
same,Ratio,[3],>=2
CC[C@@H]([C@H](C)O)n1ncn(-c2ccc(N3CCN(c4ccc(OC[C@@H]5CO[C@@](Cn6cncn6)(c6ccc(F)cc6F)C5)cc4)CC3)cc2)c1=O [POSACONAZOLE],MIC,[4],0.12 to 1 µg/mL
same,MIC,[5],0.12 to 1 µg/mL
same,MIC,[6],0.12 to 1 µg/mL
same,MIC,[7],0.12 to 1 µg/mL
same,MIC,[8],0.12 to 1 µg/mL
same,MIC,[9],0.12 to 1 µg/mL
same,MIC,[10],0.12 to 1 µg/mL
C[C@@H](n1cnnn1)[C@](O)(Cn1cncn1)c1ccc(F)cc1F,MIC,[11],12.5 µg/mL
same,Ratio,[12],8
same,ED50,[13],0.18 mg/kg
CC[C@H]1O[C@@H](/C(C)=C/[C@H](C)/C=C/[C@@H]2[C@@H](C)[C@@H]2/C=C/[C@@H]2O[C@H](Cc3nn[nH]n3)C[C@H](N(C)C)[C@H]2O)CC=C1C,MIC,[14],1.5 µg/mL
same,MIC,[15],1.5 µg/mL
c1ccc(Cn2nnnc2SCCCSc2nnnn2-c2ccccc2)cc1,MIC,[16],6.25 µg/mL
same,MIC,[17],6.25 µg/mL
same,MIC,[18],6.25 µg/mL
same,MIC,[19],6.25 µg/mL
Cn1nnnc1SCC(=O)Nc1ccc(-c2nc3cc(Cl)c(Cl)cc3n2C)cc1,MIC,[20],25 to 50 µg/mL
same,MIC,[21],25 to 50 µg/mL
same,MIC,[22],25 to 50 µg/mL
Fc1cc2[nH]c(SCc3ccc(-c4ccccc4-c4nnnn4C(c4ccccc4)(c4ccccc4)c4ccccc4)cc3)nc2cc1-n1cncn1,MIC,[23],4 to 8 µg/mL
same,MIC,[24],4 to 8 µg/mL
same,MIC,[25],4 to 8 µg/mL
same,MIC,[26],4 to 8 µg/mL
O=C(/C=C/c1ccc(OC(F)F)c(O)c1)c1ccc(-n2cnnn2)cc1,Ratio,[1],>4
same,Ratio,[3],>4
Cc1snnc1C(Nc1ccc([N+](=O)[O-])cc1)c1nnnn1C1CCCCC1 (configuration not stated),inhibition of growth at 50 µg/mL,[27],20 to 65.4%
same,inhibition of growth at 50 µg/mL,[28],20 to 65.4%
same,inhibition of growth at 50 µg/mL,[29],20 to 65.4%
same,inhibition of growth at 50 µg/mL,[30],20 to 65.4%
same,inhibition of growth at 50 µg/mL,[31],20 to 65.4%
same,inhibition of growth at 50 µg/mL,[32],20 to 65.4%
same,inhibition of growth at 50 µg/mL,[33],20 to 65.4%
same,inhibition of growth at 50 µg/mL,[34],20 to 65.4%
same,inhibition of growth at 50 µg/mL,[35],20 to 65.4%
COC1=CC(=O)C[C@@H](C)[C@]12Oc1c(Cl)c(OC)cc(OC)c1C2=O [GRISEOFULVIN],MIC,[36],500 µg/mL
same,MIC,[37],10 µg/mL
same,MIC,[38],10 µg/mL
Cn1c(-c2ccc(NC(=O)CSc3nnnn3-c3ccccc3)cc2)nc2cc(Cl)c(Cl)cc21,MIC,[20],25 to 50 µg/mL
same,MIC,[21],25 to 50 µg/mL
same,MIC,[22],25 to 50 µg/mL
Clc1ccc(COC(Cn2ccnc2)c2ccc(Cl)cc2Cl)c(Cl)c1 (configuration not stated) [MICONAZOLE],MIC,[39],25 µg/mL
same,MIC,[40],12.5 µg/mL
same,MIC,[41],12.5 µg/mL
same,MIC,[42],400 µg/mL
